# Measurements: patent publication US20160051560A1, “TREATMENTS INVOLVING ESLICARBAZEPINE OR ESLICARBAZEPINE ACETATE” (BIAL - PORTELA & Cª, S.A., priority 2013, published 2016)
# Columns and labels:
# [1] = system: patients with acute manic (including mixed) episode, bipolar I disorder; assay: Adverse events, Studies BIA-2093-203 and BIA-2093-204 together (safety population); format: in vivo, human
# Description: Medical history and demographic information was obtained at the screening visit. A complete physical and neurological examination was performed at screening, V7 or early discontinuation (EDV), V8 and post-study visit (PSV). Vital signs (pulse rate and blood pressure) were determined at every visit. […] Clinically significant abnormalities in laboratory tests, vital signs or 12-lead ECG were considered as AEs.
# Safety was evaluated based on the occurrence of AEs. AEs were documented by the investigator with reference to intensity, dates of occurrence and resolution, outcome and relation to the treatment (causality). Furthermore, each AE was classified as being serious or non-serious. All patients with AEs were followed until their resolution. AEs were coded according to the Medical Dictionary for Regulatory Activities (MedDRA).
# Three study populations were defined for the statistical analyses: safety, intent to treat (ITT), and per protocol (PP). The safety population consisted of all patients who received at least one dose of investigational product. The ITT population consisted of all randomised patients who had at least one post-baseline efficacy assessment. The PP population consisted of all patients who complied with the study protocol without major deviations.
# [2] = leading to a better tolerability profile; cited from earlier work
# [3] = system: patients with acute manic (including mixed) episode, bipolar I disorder; assay: Study BIA-2093-204: 3-week double-blind, randomised, placebo-controlled, fixed multiple dose study in acute mania; format: in vivo, human; conditions: for YMRS score absolute change from V2 (1 Day) to V7 (21 Days), Mean ± SD / YMRS score absolute change from V2 (1 Day) to V7 (21 Days), Median (range): ITT
# Description: Two 3-week multicentre, double-blind, randomised, placebo-controlled studies in acute mania (study BIA-2093-203: dose titrated by response, eslicarbazepine acetate (ESL) 600-1800 mg or 800-2400 mg, once-daily; study BIA-2093-204: fixed doses of 600, 1200 and 1800 mg, once-daily) were followed by a recurrence prevention study consisting of a 2-week open-label period (900 mg, once-daily) continued by a double-blind, parallel-group, fixed dose (300, 900 and 1800 mg, once-daily) period for a minimum of 6 months. The primary endpoint was change in Young Mania Rating Scale (YMRS) in studies BIA-2093-203 and BIA-2093-204, and the proportion of no worsening patients in the Clinical Global Impressions-Bipolar Version (CGI-BP) in study BIA-2093-205.
# Study BIA-2093-204 (EudraCT No 2005-002133-13) followed a multicentre, double-blind, randomised, parallel-group, placebo-controlled, fixed multiple dose design. This study was conducted at 25 study centres in Europe, South Africa and South America. Patients were randomised (1:1:1:1) to one of the following treatment groups: (1) ESL 1800 mg QD, (2) ESL 1200 mg QD, (3) ESL 600 mg QD, and (4) Placebo QD. The visit schedule in study BIA-2093-204 was similar to that of study BIA-2093-203. […] Patients also had the option of entering Study BIA-2093-205.
# Studies BIA-2093-203 and BIA-2093-204 enrolled patients with ages ≧18 years, currently displaying an acute manic (including mixed) episode and with a documented diagnosis of bipolar I disorder according to the DSM-IV criteria (2). Eligible patients should have a Young Mania Rating Scale (YMRS) total score ≧20, with symptoms of the current manic episode starting within two weeks prior to randomization. Patients were excluded if they had history of schizophrenia or schizoaffective disorder, psychotic features or rapid cycling. Patients were also excluded if they were treated with carbamazepine, oxcarbazepine or a depot-neuroleptic. Previous treatment with ESL or history of unresponsiveness, intolerance or hypersensitivity to other dibenzazepine compounds (carbamazepine, oxcarbazepine or licarbazepine) also constituted criteria for exclusion. Patients with clinical relevant risk of harm to self or others and history of substance abuse were also excluded. Women were excluded if they were pregnant or breast-feeding, or if of childbearing potential they were unable to use double-barrier contraception.
# The following validated instruments were used: YMRS (20), the Clinical Global Impressions-Bipolar Version (CGI-BP) scale (21) and the Montgomery-Åsberg Depression Rating Scale (MADRS) (22). The YMRS score is the sum of 11 scoring items, ranging from 0 to 60 points; higher scores indicate higher mania symptomatology (20). The CGI-BP scale measures severity and treatment-related improvement in mania, depression and overall illness categories. It comprises 3 scales: severity of illness (1—normal to 7—very severely ill, in which 3—mildly ill was used as cut-off value for statistical analysis), change from preceding phase and worst phase (1—very much improved to 7—very much worse, and 8—not applicable) (21). The MADRS score is calculated as the sum of the 10 scoring items, ranging from 0 to 60 points: higher scores indicate higher depression symptomatology (22).
# The primary efficacy endpoint for acute mania studies (BIA-2093-203 and BIA-2093-204) was the change in YMRS total score from baseline until the end of the 3-week treatment period. Investigators administered the YMRS at each visit. Secondary efficacy variables based on the YMRS score included responder rate (proportion of patients with ≧50% improvement or <12 points in the YMRS score), change in YMRS total score for each visit, proportion of patients in full remission (YMRS score <12), and time to full remission. The investigators completed CGI-BP in all visits and the test scores in the different categories were considered as secondary endpoints. […]
# [4] = ESL 600 mg, n = 72, Studies 203 and 204
# [5] = ESL 1200 mg, n = 9, only study 204
# [6] = ESL 1800 mg, n = 10, only study 204
compound,measurement,setting,value
"CC(=O)O[C@H]1Cc2ccccc2N(C(N)=O)c2ccccc21 [ESL, (S)-10-acetoxy-10,11-dihydro-5H-dibenz[b,f]azepine-5-carboxamide]",serious AE: leukopenia and hyponatremia,[1]; ESL 600 mg,1 case
same,Any Adverse Events,[1]; [4],38 (52.8) Number (%) of patients
same,Diarrhoea,[1]; [4],8 (11.1) Number (%) of patients
same,Dizziness,[1]; [4],7 (9.7) Number (%) of patients
same,Headache,[1]; [4],8 (11.1) Number (%) of patients
same,Nausea,[1]; [4],2 (2.8) Number (%) of patients
same,Paraesthesia oral,[1]; [4],0 (0.0) Number (%) of patients
same,Somnolence,[1]; [4],2 (2.8) Number (%) of patients
same,Vomiting,[1]; [4],4 (5.6) Number (%) of patients
same,incidence of treatment-related AEs,"[1]; studies BIA-2093-203 and BIA-2093-204, comparable between treatment groups",< 35 % of patients
same,production of toxic metabolites compared to carbamazepine,[2],reduced production of toxic metabolites
same,"YMRS score absolute change from V2 (1 Day) to V7 (21 Days), Mean ± SD","[3]; ESL 600 mg QD, n = 8",−16.9 ± 2.8
same,"YMRS score absolute change from V2 (1 Day) to V7 (21 Days), Median (range)","[3]; ESL 600 mg QD, n = 8","−17.5 (−20.0, −12.0)"
same,"YMRS score absolute change from V2 (1 Day) to V7 (21 Days), Mean ± SD","[3]; ESL 1200 mg QD, n = 9",−16.7 ± 9.1
same,"YMRS score absolute change from V2 (1 Day) to V7 (21 Days), Median (range)","[3]; ESL 1200 mg QD, n = 9","−15.0 (−35.0, −4.0)"
same,Any Adverse Events,[3]; [5],9 (100.0) Number (%) of patients
same,Diarrhoea,[3]; [5],0 (0.0) Number (%) of patients
same,Dizziness,[3]; [5],2 (22.2) Number (%) of patients
same,Headache,[3]; [5],5 (55.6) Number (%) of patients
same,Nausea,[3]; [5],1 (11.1) Number (%) of patients
same,Paraesthesia oral,[3]; [5],1 (11.1) Number (%) of patients
same,Somnolence,[3]; [5],1 (11.1) Number (%) of patients
same,Vomiting,[3]; [5],2 (22.2) Number (%) of patients
same,"YMRS score absolute change from V2 (1 Day) to V7 (21 Days), Mean ± SD","[3]; ESL 1800 mg QD, n = 9",−11.3 ± 10.9
same,"YMRS score absolute change from V2 (1 Day) to V7 (21 Days), Median (range)","[3]; ESL 1800 mg QD, n = 9","−15.0 (−26.0, 7.0)"
same,mean change in YMRS total scores from screening to V7,[3]; ESL 1800 mg group,−11.3
same,patients in full remission at the end of the 3-week treatment period,[3]; ESL 1800 mg group,33.3%
same,Any Adverse Events,[3]; [6],10 (100.0) Number (%) of patients
same,Diarrhoea,[3]; [6],0 (0.0) Number (%) of patients
same,Dizziness,[3]; [6],4 (40.0) Number (%) of patients
same,Headache,[3]; [6],1 (10.0) Number (%) of patients
same,Nausea,[3]; [6],3 (30.0) Number (%) of patients
same,Paraesthesia oral,[3]; [6],2 (20.0) Number (%) of patients
same,Somnolence,[3]; [6],3 (30.0) Number (%) of patients
same,Vomiting,[3]; [6],2 (20.0) Number (%) of patients
